Test results reported in the CheMixHub viscosity set.
Several values for one entry are separate records, joined by “and”; a condition that tells them apart may be missing. Equal values may be shown once. ± gives the uncertainty stated by the source.

Tests used:
[1] = xn = mol fraction of the nth substance listed

c1ccccc1
Details | viscosity
293.15 K, 100 kPa | 0.641 ± 0.03 mPa·s and 0.656 ± 0.033 mPa·s
293.15 K, 101 kPa | 0.644 ± 0.013 mPa·s and 0.629 ± 0.006 mPa·s and 0.646 ± 0.011 mPa·s
293.15 K, 101.33 kPa | 0.645 ± 0.004 mPa·s and 0.645 ± 0.006 mPa·s
293.16 K, 101 kPa | 0.652 ± 0.017 mPa·s
294.35 K, 101.33 kPa | 0.6559 ± 0.0076 mPa·s
298 K, 101 kPa | 0.6139 ± 0.0087 mPa·s
298 K, 101.33 kPa | 0.596 ± 0.008 mPa·s
298.15 K, 100 kPa | 0.6121 ± 0.074 mPa·s
298.15 K, 101.3 kPa | 0.609 ± 0.0056 mPa·s
303.15 K, 101.32 kPa | 0.576 ± 0.004 mPa·s
303.95 K, 101.33 kPa | 0.5989 ± 0.0069 mPa·s
304.85 K, 101.33 kPa | 0.5927 ± 0.0069 mPa·s
307.35 K, 101.33 kPa | 0.53 ± 0.0095 mPa·s
307.4 K, 101.33 kPa | 0.309 ± 0.003 mPa·s
312.95 K, 101.33 kPa | 0.5173 ± 0.006 mPa·s
313 K, 101 kPa | 0.4925 ± 0.0035 mPa·s and 0.4923 ± 0.0035 mPa·s and 0.4923 ± 0.0033 mPa·s
313 K, 101.33 kPa | 0.489 ± 0.007 mPa·s
313.15 K, 100 kPa | 0.491 ± 0.025 mPa·s
313.25 K, 101.33 kPa | 0.5324 ± 0.015 mPa·s
318 K, 101 kPa | 0.4788 ± 0.0071 mPa·s
318 K, 101.3 kPa | 0.4765 ± 0.019 mPa·s
318.15 K, 101.33 kPa | 0.553 ± 0.016 mPa·s and 0.553 ± 0.06 mPa·s
322.75 K, 101.33 kPa | 0.4749 ± 0.0055 mPa·s
322.85 K, 101.33 kPa | 0.4803 ± 0.0055 mPa·s
323.15 K, 100 kPa | 0.435 ± 0.022 mPa·s
323.15 K, 101 kPa | 0.438 ± 0.009 mPa·s and 0.4367 ± 0.0041 mPa·s and 0.434 ± 0.012 mPa·s

CCCCCCCC + c1ccccc1
[1], 298.15 K, 101.33 kPa
Details | viscosity [mPa·s]
x1 = 0.04472 | 0.5829 ± 0.0053
x1 = 0.09184 | 0.5595 ± 0.0051
x1 = 0.1715 | 0.5352 ± 0.0049
x1 = 0.2954 | 0.5061 ± 0.0047
x1 = 0.4088 | 0.4934 ± 0.0046
x1 = 0.4907 | 0.4904 ± 0.0046
x1 = 0.5855 | 0.4924 ± 0.0046
x1 = 0.739 | 0.4929 ± 0.0046
x1 = 0.928 | 0.5124 ± 0.0048

CCCCCCCCCCCCCC + c1ccccc1
[1]
Details | viscosity [mPa·s]
298 K, 101 kPa, x2 = 0.5 | 1.239 ± 0.033
298.15 K, 101 kPa, x1 = 0.1005 | 0.696 ± 0.047
298.15 K, 101 kPa, x1 = 0.2025 | 0.803 ± 0.053
298.15 K, 101 kPa, x1 = 0.3001 | 0.909 ± 0.059
298.15 K, 101 kPa, x1 = 0.3948 | 1.038 ± 0.066
298.15 K, 101 kPa, x1 = 0.469 | 1.168 ± 0.073
298.15 K, 101 kPa, x1 = 0.5776 | 1.318 ± 0.082
298.15 K, 101 kPa, x1 = 0.6954 | 1.468 ± 0.09
298.15 K, 101 kPa, x1 = 0.8004 | 1.664 ± 0.1
298.15 K, 101 kPa, x1 = 0.9094 | 1.86 ± 0.11
298.15 K, 101.33 kPa, x1 = 0.04444 | 0.6498 ± 0.0058
298.15 K, 101.33 kPa, x1 = 0.09068 | 0.6807 ± 0.006
298.15 K, 101.33 kPa, x1 = 0.2125 | 0.8158 ± 0.007
298.15 K, 101.33 kPa, x1 = 0.4169 | 1.079 ± 0.0089
298.15 K, 101.33 kPa, x1 = 0.5121 | 1.221 ± 0.01
298.15 K, 101.33 kPa, x1 = 0.6271 | 1.423 ± 0.011
298.15 K, 101.33 kPa, x1 = 0.7139 | 1.579 ± 0.013
298.15 K, 101.33 kPa, x1 = 0.8006 | 1.716 ± 0.014
298.15 K, 101.33 kPa, x1 = 0.8822 | 1.842 ± 0.015
303.15 K, 101 kPa, x1 = 0.1005 | 0.653 ± 0.045
303.15 K, 101 kPa, x1 = 0.2025 | 0.748 ± 0.05
303.15 K, 101 kPa, x1 = 0.3001 | 0.842 ± 0.055
303.15 K, 101 kPa, x1 = 0.3948 | 0.961 ± 0.062
303.15 K, 101 kPa, x1 = 0.469 | 1.081 ± 0.068
303.15 K, 101 kPa, x1 = 0.5776 | 1.211 ± 0.076
303.15 K, 101 kPa, x1 = 0.6954 | 1.341 ± 0.083
303.15 K, 101 kPa, x1 = 0.8004 | 1.513 ± 0.092
303.15 K, 101 kPa, x1 = 0.9094 | 1.684 ± 0.1
308.15 K, 101 kPa, x1 = 0.1005 | 0.611 ± 0.042
308.15 K, 101 kPa, x1 = 0.2025 | 0.699 ± 0.047
308.15 K, 101 kPa, x1 = 0.3001 | 0.786 ± 0.052
308.15 K, 101 kPa, x1 = 0.3948 | 0.894 ± 0.058
308.15 K, 101 kPa, x1 = 0.469 | 1.002 ± 0.064
308.15 K, 101 kPa, x1 = 0.5776 | 1.115 ± 0.07
308.15 K, 101 kPa, x1 = 0.6954 | 1.228 ± 0.077
308.15 K, 101 kPa, x1 = 0.8004 | 1.384 ± 0.085
308.15 K, 101 kPa, x1 = 0.9094 | 1.54 ± 0.094
318 K, 101 kPa, x2 = 0.5 | 0.9217 ± 0.024

Cc1ccnc(C)c1 + c1ccccc1
viscosity [mPa·s], [1], 101 kPa
Details | x1 = 0.1033 | x1 = 0.1926 | x1 = 0.3022 | x1 = 0.397 | x1 = 0.492 | x1 = 0.6027 | x1 = 0.697 | x1 = 0.8005 | x1 = 0.8995
303 K | 0.5693 ± 0.004 | 0.5838 ± 0.0041 | 0.6013 ± 0.0043 | 0.6187 ± 0.0045 | 0.6483 ± 0.0048 | 0.6749 ± 0.0051 | 0.6927 ± 0.0053 | 0.7197 ± 0.0056 | 0.7508 ± 0.006
313 K | 0.5048 ± 0.0036 | 0.5147 ± 0.0037 | 0.5305 ± 0.0039 | 0.5497 ± 0.0041 | 0.5727 ± 0.0043 | 0.5908 ± 0.0045 | 0.6073 ± 0.0047 | 0.6318 ± 0.005 | 0.6679 ± 0.0054
323 K | 0.4489 ± 0.0033 | 0.4582 ± 0.0034 | 0.4749 ± 0.0036 | 0.4967 ± 0.0037 | 0.5102 ± 0.0039 | 0.5277 ± 0.0041 | 0.5424 ± 0.0043 | 0.5752 ± 0.0046 | 0.5919 ± 0.0048

ClC(Cl)=C(Cl)Cl + c1ccccc1
[1]
Details | viscosity [mPa·s]
298.15 K, 101 kPa, x2 = 0.0876 | 0.8015 ± 0.0068
298.15 K, 101 kPa, x2 = 0.1609 | 0.771 ± 0.0066
298.15 K, 101 kPa, x2 = 0.3555 | 0.7018 ± 0.006
298.15 K, 101 kPa, x2 = 0.452 | 0.6743 ± 0.0058
298.15 K, 101 kPa, x2 = 0.6216 | 0.6351 ± 0.0055
298.15 K, 101 kPa, x2 = 0.6602 | 0.6286 ± 0.0054
298.15 K, 101 kPa, x2 = 0.708 | 0.6209 ± 0.0054
298.15 K, 101 kPa, x2 = 0.781 | 0.6115 ± 0.0053
298.15 K, 101 kPa, x2 = 0.8752 | 0.6029 ± 0.0052
298.15 K, 101 kPa, x2 = 0.9037 | 0.6011 ± 0.0052
303.15 K, 101.33 kPa, x1 = 0.1913 | 0.577 ± 0.006
303.15 K, 101.33 kPa, x1 = 0.2749 | 0.584 ± 0.006
303.15 K, 101.33 kPa, x1 = 0.3761 | 0.605 ± 0.006
303.15 K, 101.33 kPa, x1 = 0.4668 | 0.624 ± 0.006
303.15 K, 101.33 kPa, x1 = 0.5756 | 0.648 ± 0.006
303.15 K, 101.33 kPa, x1 = 0.6664 | 0.675 ± 0.007
303.15 K, 101.33 kPa, x1 = 0.7757 | 0.712 ± 0.007
303.15 K, 101.33 kPa, x1 = 0.8828 | 0.746 ± 0.007

O=[N+]([O-])c1ccccc1 + c1ccccc1
[1], 101 kPa
Details | viscosity [mPa·s]
298.15 K, x2 = 0.2096 | 1.417 ± 0.018
298.15 K, x2 = 0.4874 | 1.017 ± 0.013
298.15 K, x2 = 0.8636 | 0.681 ± 0.009
303.15 K, x1 = 0.0887 | 0.6013 ± 0.0047
303.15 K, x1 = 0.1796 | 0.654 ± 0.005
303.15 K, x1 = 0.2737 | 0.7103 ± 0.0054
303.15 K, x1 = 0.3694 | 0.7841 ± 0.0059
303.15 K, x1 = 0.4673 | 0.865 ± 0.0065
303.15 K, x1 = 0.5682 | 0.9589 ± 0.0071
303.15 K, x1 = 0.6723 | 1.075 ± 0.0079
303.15 K, x1 = 0.7788 | 1.218 ± 0.0088
303.15 K, x1 = 0.8874 | 1.39 ± 0.01

ClC(Cl)=C(Cl)Cl + c1ccncc1
[1], 298.15 K, 101 kPa
Details | viscosity [mPa·s]
x1 = 0.0296 | 0.8879 ± 0.0075
x1 = 0.1254 | 0.8794 ± 0.0075
x1 = 0.1862 | 0.875 ± 0.0074
x1 = 0.2246 | 0.8719 ± 0.0074
x1 = 0.2887 | 0.8657 ± 0.0073
x1 = 0.4448 | 0.8496 ± 0.0072
x1 = 0.5638 | 0.8411 ± 0.0071
x1 = 0.6271 | 0.837 ± 0.0071
x1 = 0.7214 | 0.8324 ± 0.0071
x1 = 0.842 | 0.8315 ± 0.0071
x1 = 0.9127 | 0.8331 ± 0.0071
x1 = 0.9559 | 0.8373 ± 0.0071
